From publication PMC11769294, “(E)-1-(3-(3-Hydroxy-4-Methoxyphenyl)-1-(3,4,5-Trimethoxyphenyl)allyl)-1H-1,2,4-Triazole and Related Compounds: Their Synthesis and Biological Evaluation as Novel Antimitotic Agents Targeting Breast Cancer” (Pharmaceuticals, 2025)
Where “and” joins values, the source holds several entries; their conditions need not be identical. Equal entries are not always repeated. Where two headings read alike, the source gives them in different places.

Key:
Type in all cases: cell-based, human
[1] = system: NCI 60 cancer cell line panel; experiment: NCI60 screen (SRB), all cell lines; conditions: for mean growth percent: over the 60-cell line panel, one dose 10 µM
[2] = system: leukemia panel; experiment: NCI60 screen (SRB), panel mean; conditions: one dose 10 µM, 48 h
[3] = system: HL-60 (TB) (Leukemia); experiment: NCI60 screen (SRB); conditions: for growth percent: HL-60 (TB), one dose 10 µM; for GI50: HL-60(TB), five-dose
[4] = system: RPMI-8226 (Leukemia); experiment: NCI60 screen (SRB); conditions: 48 h; for growth percent: one dose 10 µM
[5] = system: EKVX (Non-Small Cell Lung Cancer); experiment: NCI60 screen (SRB); conditions: 48 h; for growth percent: one dose 10 µM
[6] = system: HOP-62 (Non-Small Cell Lung Cancer); experiment: NCI60 screen (SRB); conditions: 48 h; for growth percent: one dose 10 µM
[7] = system: NCI-H522 (Non-Small Cell Lung Cancer); experiment: NCI60 screen (SRB); conditions: for growth percent: one dose 10 µM; for GI50: five-dose
[8] = system: COLO 205 (Colon Cancer); experiment: NCI60 screen (SRB); conditions: 48 h; for growth percent: one dose 10 µM
[9] = system: HCC-2998 (Colon Cancer); experiment: NCI60 screen (SRB); conditions: 48 h; for growth percent: one dose 10 µM
[10] = system: HT29 (Colon Cancer); experiment: NCI60 screen (SRB); conditions: 48 h; for growth percent: one dose 10 µM
[11] = system: SNB-19 (CNS Cancer); experiment: NCI60 screen (SRB); conditions: 48 h; for growth percent: one dose 10 µM
[12] = system: U251 (CNS Cancer); experiment: NCI60 screen (SRB); conditions: 48 h; for growth percent: one dose 10 µM
[13] = system: LOX IMVI (Melanoma); experiment: NCI60 screen (SRB); conditions: 48 h; for growth percent: one dose 10 µM
[14] = system: MALME-3M (Melanoma); experiment: NCI60 screen (SRB); conditions: 48 h; for growth percent: one dose 10 µM
[15] = system: M14 (Melanoma); experiment: NCI60 screen (SRB); conditions: 48 h; for growth percent: one dose 10 µM
[16] = system: SK-MEL-5 (Melanoma); experiment: NCI60 screen (SRB); conditions: 48 h; for growth percent: one dose 10 µM
[17] = system: UACC-62 (Melanoma); experiment: NCI60 screen (SRB); conditions: 48 h; for growth percent: one dose 10 µM
[18] = system: IGROV1 (Ovarian Cancer); experiment: NCI60 screen (SRB); conditions: 48 h; for growth percent: one dose 10 µM
[19] = system: OVCAR-3 (Ovarian Cancer); experiment: NCI60 screen (SRB); conditions: 48 h; for growth percent: one dose 10 µM
[20] = system: OVCAR-4 (Ovarian Cancer); experiment: NCI60 screen (SRB); conditions: 48 h; for growth percent: one dose 10 µM
[21] = system: SK-OV-3 (Ovarian Cancer); experiment: NCI60 screen (SRB); conditions: 48 h; for growth percent: one dose 10 µM
[22] = system: 786-0 (Renal Cancer); experiment: NCI60 screen (SRB); conditions: 48 h; for growth percent: one dose 10 µM
[23] = system: A498 (Renal Cancer); experiment: NCI60 screen (SRB); conditions: 48 h; for growth percent: one dose 10 µM
[24] = system: SN12C (Renal Cancer); experiment: NCI60 screen (SRB); conditions: 48 h; for growth percent: one dose 10 µM
[25] = system: TK-10 (Renal Cancer); experiment: NCI60 screen (SRB); conditions: 48 h; for growth percent: one dose 10 µM
[26] = system: UO-31 (Renal Cancer); experiment: NCI60 screen (SRB); conditions: 48 h; for growth percent: one dose 10 µM
[27] = system: PC-3 (Prostate Cancer); experiment: NCI60 screen (SRB); conditions: 48 h; for growth percent: one dose 10 µM
[28] = system: DU-145 (Prostate Cancer); experiment: NCI60 screen (SRB); conditions: 48 h; for growth percent: one dose 10 µM
[29] = system: MDA-MB-231/ATCC (Breast Cancer); experiment: NCI60 screen (SRB); conditions: 48 h; for growth percent: one dose 10 µM
[30] = system: T-47D (Breast Cancer); experiment: NCI60 screen (SRB); conditions: 48 h; for growth percent: one dose 10 µM
[31] = Homo sapiens, five-dose, read-out: IC50 (cell marked * in GI50 column) (converted)
[32] = Homo sapiens, five-dose, read-out: IC50 (cell marked * in GI50 column)

Compound: COc1ccc(/C=C/C(c2cc(OC)c(OC)c(OC)c2)n2cncn2)cc1 (centres unmarked) [Compound 22a, (E)-1-(3-(4-Methoxyphenyl)-1-(3,4,5-trimethoxyphenyl)allyl)-1H-1,2,4-triazole]
- mean growth percent ([1]; 48 h): 41.9%
- mean growth percentage [2]: 24.0%
- growth percent ([3]; 48 h): −17.94%
- growth percent [4]: 50.84%
- growth percent [5]: 66.04%
- growth percent [6]: 41.84%
- growth percent ([7]; 48 h): 28.37%
- growth percent [8]: 30.72%
- growth percent [9]: 84.15%
- growth percent [10]: 4.96%
- growth percent [11]: 49.01%
- growth percent [12]: 31.77%
- growth percent [13]: 49.98%
- growth percent [14]: 61.34%
- growth percent [15]: 17.86%
- growth percent [16]: 33.03%
- growth percent [17]: 33.84%
- growth percent [18]: 64.61%
- growth percent [19]: 9.06%
- growth percent [20]: 96.82%
- growth percent [21]: 35.55%
- growth percent [22]: 39.65%
- growth percent [23]: 36.38%
- growth percent [24]: 62.02%
- growth percent [25]: 48.52%
- growth percent [26]: 64.39%
- growth percent [27]: 31.20%
- growth percent [28]: 61.25%
- growth percent [29]: 50.05%
- growth percent [30]: 30.79%

Compound: COc1ccc(/C=C/C(c2cc(OC)c(OC)c(OC)c2)n2cncn2)cc1O (centres unmarked) [Compound 22b, (E)-5-(3-(1H-1,2,4-Triazol-1-yl)-3-(3,4,5-trimethoxyphenyl)prop-1-en-1-yl)-2-methoxyphenol]
- GI50 ([1]; Homo sapiens, 48 h, five-dose, 48 h, read-out: MG-MID (mean of GI50 values over all cell lines)): 371 nM
- GI50 ([1]; Homo sapiens, Figure 8, concentration in molar, read-out: Log 10 GI-50 Mean (converted)): 2140 nM
- IC50 ([1]; Homo sapiens, Figure 8, concentration in molar, read-out: Log 10 IC-50 Mean (converted)): 2880 nM
- LC50 (50% lethal concentration) ([1]; Homo sapiens, over all 60 cell lines, five-dose): > 100000 nM
- GI50 ([1]; five-dose, 48 h, read-out: MG-MID (mean of GI50 values over all cell lines)): 372 nM
- TGI (total growth inhibition) ([1]; over all 60 cell lines, five-dose): 57500 nM
- mean growth percent ([1]; 48 h): 29.9%
- mean growth percentage [2]: 4.2%
- GI50 ([3]; 48 h): 24.5 nM
- growth percent ([3]; 48 h): −36.28%
- GI50 ([3]; Homo sapiens, HL-60, 48 h): 24 nM
- GI50 ([4]; Homo sapiens, five-dose): 37 nM
- growth percent [4]: 19.89%
- GI50 ([5]; Homo sapiens, five-dose): 6070 nM
- growth percent [5]: 59.45%
- IC50 [6, 31]: 30200 nM
- growth percent [6]: 22.52%
- GI50 ([7]; Homo sapiens, NCI-H522, 48 h): 22 nM
- GI50 ([7]; 48 h): 22.3 nM
- growth percent ([7]; 48 h): 13.04%
- GI50 ([8]; Homo sapiens, five-dose): 3660 nM
- growth percent [8]: 60.64%
- GI50 ([9]; Homo sapiens, five-dose): 3000 nM
- growth percent [9]: 67.70%
- GI50 ([10]; Homo sapiens, HT-29, five-dose): 3680 nM
- growth percent [10]: 41.01%
- IC50 [11, 31]: 25700 nM
- growth percent [11]: 34.19%
- GI50 ([12]; Homo sapiens, U-251, five-dose): 50.6 nM
- growth percent [12]: 20.72%
- GI50 ([13]; Homo sapiens, five-dose): 51.1 nM
- growth percent [13]: 50.87%
- IC50 [14, 32]: > 100000 nM
- growth percent [14]: 54.35%
- GI50 ([15]; Homo sapiens, five-dose): 28.7 nM
- growth percent [15]: −12.29%
- GI50 ([16]; Homo sapiens, five-dose): 45.8 nM
- growth percent [16]: 23.87%
- GI50 ([17]; Homo sapiens, five-dose): 47.6 nM
- growth percent [17]: 37.50%
- GI50 ([18]; Homo sapiens, IGROV-1, five-dose): 5830 nM
- growth percent [18]: 50.48%
- GI50 ([19]; Homo sapiens, five-dose): 26 nM
- growth percent [19]: 15.65%
- GI50 ([20]; Homo sapiens, five-dose): 7050 nM
- growth percent [20]: 83.51%
- IC50 [21, 32]: > 100000 nM
- growth percent [21]: 12.67%
- IC50 [22, 31]: 8910 nM
- growth percent [22]: 23.33%
- GI50 ([23]; Homo sapiens, five-dose): 3130 nM
- growth percent [23]: 19.81%
- GI50 ([24]; Homo sapiens, five-dose): 7190 nM
- growth percent [24]: 49.61%
- GI50 ([25]; Homo sapiens, five-dose): 21200 nM
- growth percent [25]: 41.24%
- IC50 [26, 32]: > 100000 nM
- growth percent [26]: 54.20%
- GI50 ([27]; Homo sapiens, five-dose): 36 nM
- growth percent [27]: 23.47%
- IC50 [28, 31]: 6610 nM
- growth percent [28]: 21.00%
- GI50 ([29]; Homo sapiens, five-dose): 3020 nM
- GI50 ([30]; Homo sapiens, T47D, five-dose): > 100000 nM
- growth percent [30]: 34.38%

Compound: COc1ccc(/C=C/C(c2cc(OC)c(OC)c(OC)c2)n2ccnc2)cc1O (centres unmarked) [Compound 23b, (E)-5-(3-(1H-Imidazol-1-yl)-3-(3,4,5-trimethoxyphenyl)prop-1-en-1-yl)-2-methoxyphenol]
- mean growth percent ([1]; 48 h): 39.7%
- mean growth percentage [2]: 11.2%
- growth percent ([3]; 48 h): −36.59%
- growth percent [4]: 15.14%
- growth percent [5]: 81.22%
- growth percent [6]: 47.25%
- growth percent ([7]; 48 h): 24.65%
- growth percent [8]: 89.81%
- growth percent [9]: 76.97%
- growth percent [10]: 70.97%
- growth percent [11]: 47.27%
- growth percent [12]: 27.12%
- growth percent [13]: 46.09%
- growth percent [14]: 57.72%
- growth percent [15]: 18.61%
- growth percent [16]: 16.98%
- growth percent [17]: 36.37%
- growth percent [18]: 55.74%
- growth percent [19]: 4.86%
- growth percent [20]: 78.81%
- growth percent [21]: 33.54%
- growth percent [22]: 34.04%
- growth percent [23]: 67.46%
- growth percent [24]: 57.15%
- growth percent [25]: 84.45%
- growth percent [26]: 59.92%
- growth percent [27]: 25.28%
- growth percent [28]: 37.76%
- growth percent [29]: 53.0% and 52.97%
- growth percent [30]: 40.62%
